# Measurements: patent US20260217687A1 (NeoPhore Limited, priority 2023, published 2026)
# Target: T1, recombinant N-terminal MLH1 (residues 15-340) (Homo sapiens, UniProt P40692)
# T1 construct: recombinant N-terminal MLH1 (residues 15-340)
# T1 sequence (P40692 15-340): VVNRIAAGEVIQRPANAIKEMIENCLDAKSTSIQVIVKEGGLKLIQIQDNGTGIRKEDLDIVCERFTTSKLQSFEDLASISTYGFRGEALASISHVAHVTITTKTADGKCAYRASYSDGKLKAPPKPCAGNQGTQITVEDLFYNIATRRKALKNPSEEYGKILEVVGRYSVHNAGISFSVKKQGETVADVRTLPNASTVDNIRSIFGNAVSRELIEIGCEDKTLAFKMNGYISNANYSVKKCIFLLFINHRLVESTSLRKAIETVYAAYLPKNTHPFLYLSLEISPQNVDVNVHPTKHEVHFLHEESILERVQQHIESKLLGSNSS
# Test: Fluorescence Polarisation Assay for MLH1
# Type: binding
# Details: 100 nM N-terminal MLH1, 5 nM probe compound
# Summary of the method: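 Fluorescence polarisation displacement: 100 nM MLH1 (15-340) preincubated 30 min at room temperature with compound, then 5 nM rhodamine-labelled probe added and read immediately. Buffer 25 mM HEPES pH 7.5, 250 mM NaCl, 10 mM MgCl2, 0.01% Triton X-100, 5 mM DTT; normalised to no-inhibitor and no-enzyme controls.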
row,Compound,IC50
1,"CN(C)CCOc1ccc2c(c1)CN(C(=O)c1c(O)cc(C(F)F)cc1OCc1ccccc1)CC2 [Example 4.40, (2-(Benzyloxy)-4-(difluoromethyl)-6-hydroxyphenyl)(7-(2-(dimethylamino)ethoxy)-3,4-dihydroisoquinolin-2(1H)-yl)methanone]",100 to 1000 nM
2,"CC(=O)N1CC[C@@H](Nc2cccc3c2CN(C(=O)c2c(O)cc(C#N)cc2OCc2ccccc2)C3)C1 [Example 10.5, (R)-4-(4-((1-Acetylpyrrolidin-3-yl)amino)isoindoline-2-carbonyl)-3-(benzyloxy)-5-hydroxybenzonitrile]",100 to 1000 nM
3,"CN(C)CCOc1cc2c(c(N[C@H]3CCOC3)c1)CN(C(=O)c1c(O)cc(Cl)cc1OCc1ccccc1)CC2 [Example 22, (S)-(2-(Benzyloxy)-4-chloro-6-hydroxyphenyl)(6-(2-(dimethylamino)ethoxy)-8-((tetrahydrofuran-3-yl)amino)-3,4-dihydroisoquinolin-2(1H)-yl)methanone]",< 100 nM
4,"COCCNc1cccc2c1CN(C(=O)c1c(O)cc(C(F)F)cc1OCc1ccccc1)CC2 [Example 4.37, (2-(Benzyloxy)-4-(difluoromethyl)-6-hydroxyphenyl)(8-((2-methoxyethyl)amino)-3,4-dihydroisoquinolin-2(1H)-yl)methanone]",1000 to 10000 nM
5,"COc1cccc(COc2cc(C(F)F)cc(O)c2C(=O)N2Cc3cccc(N[C@H]4CCOC4)c3C2)c1 [Example 4.1, (S)-(4-(Difluoromethyl)-2-hydroxy-6-((3-methoxybenzyl)oxy)phenyl)(4-((tetrahydrofuran-3-yl)amino)isoindolin-2-yl)methanone]",100 to 1000 nM
6,"N#Cc1cc(O)c(C(=O)N2CCc3cccc(N[C@@H]4CCOC4)c3C2)c(OCc2ccccc2)c1 [Example 10.12, (R)-3-(Benzyloxy)-5-hydroxy-4-(8-((tetrahydrofuran-3-yl)amino)-1,2,3,4-tetrahydroisoquinoline-2-carbonyl)benzonitrile]",1000 to 10000 nM
7,"COCCOc1ccc2c(c1)CN(C(=O)c1c(O)cc(C#N)cc1OCc1ccccc1)C2 [Example 10.35, 3-(Benzyloxy)-5-hydroxy-4-(5-(2-methoxyethoxy)isoindoline-2-carbonyl)benzonitrile]",100 to 1000 nM

# More lines, now with the values ahead:
row,IC50,Compound
1,100 to 1000 nM,"CN(C)CCOc1ccc2c(c1)CN(C(=O)c1c(O)cc(C(F)F)cc1OCc1ccccc1)C2 [Example 4.31, (2-(Benzyloxy)-4-(difluoromethyl)-6-hydroxyphenyl)(5-(2-(dimethylamino)ethoxy)isoindolin-2-yl)methanone]"
2,100 to 1000 nM,"COc1cc(O)c(C(=O)N2Cc3cccc(N[C@@H]4CCOC4)c3C2)c(OCc2ccccc2)c1 [Example 2, (R)-(2-(Benzyloxy)-6-hydroxy-4-methoxyphenyl)(4-((tetrahydrofuran-3-yl)amino)isoindolin-2-yl)methanone]"
3,100 to 1000 nM,"N#Cc1cc(O)c(C(=O)N2Cc3cccc(N[C@H]4CCOC4)c3C2)c(OCc2ccccn2)c1 [Example 10.39, (S)-3-Hydroxy-5-(pyridin-2-ylmethoxy)-4-(4-((tetrahydrofuran-3-yl)amino)isoindoline-2-carbonyl)benzonitrile]"
4,100 to 1000 nM,"CN1CC[C@H](Nc2cccc3c2CN(C(=O)c2c(O)cc(C(F)F)cc2OCc2ccccc2)CC3)C1=O [Example 4.13, (S)-3-((2-(2-(benzyloxy)-4-(difluoromethyl)-6-hydroxybenzoyl)-1,2,3,4-tetrahydroisoquinolin-8-yl)amino)-1-methylpyrrolidin-2-one]"
